According to PMC8776995 (Frontiers in Chemistry, 2022):
Several values for one entry are separate records, joined by “and”; a condition that tells them apart may be missing. Equal values may be shown once.

Key:
[1] = test system: PC-9 cells; assay: CCK-8 antiproliferation assay, PC-9; settings: for Inhibitory efficacy: single repeats (Repeat 1-3), given as fraction
[2] = test system: H460 cells; assay: CCK-8 antiproliferation assay, H460; settings: for Inhibitory efficacy: H460 cells
[3] = biological target: wild-type EGFR (Homo sapiens, UniProt P00533); assay: EGFR kinase assay (ELISA); settings: for A450: raw ELISA absorbance
[4] = test system: H1975 cells; assay: CCK-8 antiproliferation assay, H1975; settings: for Inhibitory efficacy: H1975 cells
[5] = test system: A549 cells; assay: CCK-8 antiproliferation assay, A549; settings: for Inhibitory efficacy: A549 cells
[6] = 2uM, given as fraction, Repeat 1-3
[7] = 8uM, given as fraction, Repeat 1-3
[8] = 16uM, given as fraction, Repeat 1-3
[9] = 1uM, given as fraction, Repeat 1-3
[10] = 4uM, given as fraction, Repeat 1-3

Chain of wild-type EGFR (P00533 25-1210): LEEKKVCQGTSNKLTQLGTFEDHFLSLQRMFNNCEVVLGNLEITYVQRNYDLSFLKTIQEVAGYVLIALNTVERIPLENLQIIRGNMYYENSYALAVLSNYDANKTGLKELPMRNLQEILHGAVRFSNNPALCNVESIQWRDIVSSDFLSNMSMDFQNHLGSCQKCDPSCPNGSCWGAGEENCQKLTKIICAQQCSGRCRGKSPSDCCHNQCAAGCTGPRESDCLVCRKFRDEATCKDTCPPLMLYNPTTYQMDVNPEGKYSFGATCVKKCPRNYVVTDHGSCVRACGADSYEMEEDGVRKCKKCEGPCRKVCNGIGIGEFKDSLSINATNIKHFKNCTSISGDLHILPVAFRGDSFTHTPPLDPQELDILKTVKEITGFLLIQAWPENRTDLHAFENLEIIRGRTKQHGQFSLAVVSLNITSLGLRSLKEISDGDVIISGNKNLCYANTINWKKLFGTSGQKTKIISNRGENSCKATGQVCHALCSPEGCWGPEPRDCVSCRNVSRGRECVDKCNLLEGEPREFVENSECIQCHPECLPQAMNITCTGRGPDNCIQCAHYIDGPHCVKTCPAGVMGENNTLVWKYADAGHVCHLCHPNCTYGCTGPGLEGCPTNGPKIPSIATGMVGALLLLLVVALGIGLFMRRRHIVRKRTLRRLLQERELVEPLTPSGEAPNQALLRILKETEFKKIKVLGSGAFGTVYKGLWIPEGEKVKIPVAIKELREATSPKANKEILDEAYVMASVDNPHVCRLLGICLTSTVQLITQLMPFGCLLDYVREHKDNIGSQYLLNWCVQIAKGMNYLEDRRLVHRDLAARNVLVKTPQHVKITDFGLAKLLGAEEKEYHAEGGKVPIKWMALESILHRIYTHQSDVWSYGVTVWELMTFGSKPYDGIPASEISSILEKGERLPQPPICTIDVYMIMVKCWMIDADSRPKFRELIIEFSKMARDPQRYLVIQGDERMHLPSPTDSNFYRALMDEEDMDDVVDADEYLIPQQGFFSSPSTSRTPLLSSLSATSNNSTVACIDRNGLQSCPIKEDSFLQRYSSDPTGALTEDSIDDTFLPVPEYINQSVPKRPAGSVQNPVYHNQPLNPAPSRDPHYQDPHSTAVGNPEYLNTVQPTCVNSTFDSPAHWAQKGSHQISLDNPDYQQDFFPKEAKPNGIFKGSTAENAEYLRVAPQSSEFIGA

With `COCCOc1cc2ncnc(Nc3cccc(-c4cn(-c5ccc(Br)cc5)nn4)c3)c2cc1OCCOC` [e10, [6,7-Bis-(2-methoxy-ethoxy)-quinazolin-4-yl]-{3-[1-(4-bromo-phenyl)-1H-[1,2,3]triazol-4-yl]-phenyl}-amine] the IC50 ([1]; Homo sapiens, PC-9, 48 h, read-out: IC50 (μM) PC-9) was greater than 100 µM, the inhibition at 4 µM ([1]; Homo sapiens, PC-9, read-out: Inhibitory efficacy, PC-9, 4uM, single repeats (Repeat 1-3), given as fraction) was 11.7% and the inhibition at 16 µM ([1]; Homo sapiens, PC-9, read-out: Inhibitory efficacy, PC-9, 16uM, single repeats (Repeat 1-3), given as fraction) was 13.3%. For the same compound, the Inhibitory efficacy ([1]; PC-9, 4uM, 4 µM) was 0.1333 and 0.0912, the Inhibitory efficacy ([1]; PC-9, 16uM, 16 µM) was 0.1218 and 0.1916 and the Inhibitory efficacy [2, 6] was 0.07707 and 0.09653. For the same compound, the Inhibitory efficacy [2, 7] was 0.3228 and 0.2533, the Inhibitory efficacy [2, 8] was 0.4853 and 0.4952 and the IC50 ([2]; Homo sapiens, NCI-H460, 48 h, read-out: IC50 (μM) H460, CCK-8, 48 h, average ± SD of three independent experiments) was 15 ± 2.1 µM. It also gave an inhibition at 2 µM ([2]; Homo sapiens, NCI-H460, read-out: Inhibitory efficacy, H460 cells, 2uM, given as fraction, Repeat 1-3) of 6.52%, an inhibition at 8 µM ([2]; Homo sapiens, NCI-H460, read-out: Inhibitory efficacy, H460 cells, 8uM, given as fraction, Repeat 1-3) of 25.3% and an inhibition at 16 µM ([2]; Homo sapiens, NCI-H460, read-out: Inhibitory efficacy, H460 cells, 16uM, given as fraction, Repeat 1-3) of 60.6%. The IC50 ([3]; IC50 (μM) EGFR, ELISA, 3 μmol/L ATP) was 2.13 µM, the inhibition at 30 pM ([3]; concentration 0.03 nM, one value per replicate column) was 4.76% and the Inhibition ([3]; concentration 0.03 nM, one value per replicate column, 3e-05 µM) was 5.109. For the same compound, the inhibition at 0.0003 µM ([3]; concentration 0.3 nM, one value per replicate column) was 11.4%, the Inhibition ([3]; concentration 0.3 nM, one value per replicate column, 0.0003 µM) was 10.9489 and the inhibition at 0.003 µM ([3]; concentration 3 nM, one value per replicate column) was 15.7%. For the same compound, the Inhibition ([3]; concentration 3 nM, one value per replicate column, 0.003 µM) was 10.9489, the inhibition at 0.03 µM ([3]; concentration 30 nM, one value per replicate column) was 21.1% and the Inhibition ([3]; concentration 30 nM, one value per replicate column, 0.03 µM) was 11.3139. The inhibition at 0.3 µM ([3]; concentration 300 nM, one value per replicate column) was 36.5%, the Inhibition ([3]; concentration 300 nM, one value per replicate column, 0.3 µM) was 39.9635 and the inhibition at 3 µM ([3]; concentration 3000 nM, one value per replicate column) was 38.4%. It also gave an Inhibition ([3]; concentration 3000 nM, one value per replicate column, 3 µM) of 48.1752, an inhibition at 30 µM ([3]; concentration 30000 nM, one value per replicate column) of 78.1% and an Inhibition ([3]; concentration 30000 nM, one value per replicate column, 30 µM) of 77.5547. The A450 ([3]; concentration 0.0001 nM) was 0.787 and 0.697, the A450 ([3]; concentration 0.03 nM) was 0.757 and 0.669 and the A450 ([3]; concentration 0.3 nM) was 0.715 and 0.637. For the same compound, the A450 ([3]; concentration 3 nM) was 0.688 and 0.637, the A450 ([3]; concentration 30 nM) was 0.654 and 0.635 and the A450 ([3]; concentration 300 nM) was 0.557 and 0.478. For the same compound, the A450 ([3]; concentration 3000 nM) was 0.545 and 0.433, the A450 ([3]; concentration 30000 nM) was 0.295 and 0.272 and the Inhibitory efficacy [4, 9] was 0.3092 and 0.3364. The Inhibitory efficacy [4, 6] was 0.3838 and 0.3364, the Inhibitory efficacy [4, 10] was 0.4598 and 0.4892 and the Inhibitory efficacy [4, 7] was 0.5696 and 0.4885. For the same compound, the Inhibitory efficacy [4, 8] was 0.5545 and 0.4835, the IC50 ([4]; Homo sapiens, NCI-H1975, 48 h, read-out: IC50 (μM) H1975, CCK-8, 48 h, average ± SD of three independent experiments) was 6.36 ± 4.21 µM and the inhibition at 1 µM ([4]; Homo sapiens, NCI-H1975, read-out: Inhibitory efficacy, H1975 cells, 1uM, given as fraction, Repeat 1-3) was 39.4%. For the same compound, the inhibition at 2 µM ([4]; Homo sapiens, NCI-H1975, read-out: Inhibitory efficacy, H1975 cells, 2uM, given as fraction, Repeat 1-3) was 33.8%, the inhibition at 4 µM ([4]; Homo sapiens, NCI-H1975, read-out: Inhibitory efficacy, H1975 cells, 4uM, given as fraction, Repeat 1-3) was 51.4% and the inhibition at 8 µM ([4]; Homo sapiens, NCI-H1975, read-out: Inhibitory efficacy, H1975 cells, 8uM, given as fraction, Repeat 1-3) was 54.1%. For the same compound, the inhibition at 16 µM ([4]; Homo sapiens, NCI-H1975, read-out: Inhibitory efficacy, H1975 cells, 16uM, given as fraction, Repeat 1-3) was 67.4%, the Inhibitory efficacy [5, 9] was 0.3506 and 0.4374 and the Inhibitory efficacy [5, 6] was 0.4836 and 0.5124. For the same compound, the Inhibitory efficacy [5, 10] was 0.5136 and 0.5055, the Inhibitory efficacy [5, 7] was 0.5695 and 0.5326 and the Inhibitory efficacy [5, 8] was 0.5501 and 0.5711. The IC50 ([5]; Homo sapiens, A549, 48 h, read-out: IC50 (μM) A549, CCK-8, 48 h, average ± SD of three independent experiments) was 3.77 ± 0.68 µM, the inhibition at 1 µM ([5]; Homo sapiens, A549, read-out: Inhibitory efficacy, A549 cells, 1uM, given as fraction, Repeat 1-3) was 35.9% and the inhibition at 2 µM ([5]; Homo sapiens, A549, read-out: Inhibitory efficacy, A549 cells, 2uM, given as fraction, Repeat 1-3) was 51.4%. It also gave an inhibition at 4 µM ([5]; Homo sapiens, A549, read-out: Inhibitory efficacy, A549 cells, 4uM, given as fraction, Repeat 1-3) of 50.2%, an inhibition at 8 µM ([5]; Homo sapiens, A549, read-out: Inhibitory efficacy, A549 cells, 8uM, given as fraction, Repeat 1-3) of 55.8% and an inhibition at 16 µM ([5]; Homo sapiens, A549, read-out: Inhibitory efficacy, A549 cells, 16uM, given as fraction, Repeat 1-3) of 59%. For the same compound, the melting point was 105 to 108 °C.
